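How tested: cells in 96-well plates exposed to compound for 48 hours at five concentrations. TGI denotes the concentration required for complete inhibition of growth.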
What was measured:
Test in all cases: NCI anticancer screen, dose series, 48 h
NCI/ADR-RES ovarian = tested on: NCI/ADR-RES ovarian
HCT-116 colon = tested on: HCT-116 colon
SF-539 CNS = tested on: SF-539 CNS
HCC-2998 colon = tested on: HCC-2998 colon
SK-MEL-28 melanoma = tested on: SK-MEL-28 melanoma
OVCAR-4 ovarian = tested on: OVCAR-4 ovarian
COLO 205 colon = tested on: COLO 205 colon
HOP-62 NSCLC = tested on: HOP-62 NSCLC
SK-MEL-2 melanoma = tested on: SK-MEL-2 melanoma
RXF 393 renal = tested on: RXF 393 renal
MDA-N = tested on: MDA-N
EKVX NSCLC = tested on: EKVX NSCLC
CAKI-1 renal = tested on: CAKI-1 renal
SK-OV-3 ovarian = tested on: SK-OV-3 ovarian
TK-10 renal = tested on: TK-10 renal
MDA-MB-435 = tested on: MDA-MB-435
OVCAR-5 ovarian = tested on: OVCAR-5 ovarian
SNB-19 CNS = tested on: SNB-19 CNS
MDA-MB-231 breast = tested on: MDA-MB-231 breast
HOP-92 NSCLC = tested on: HOP-92 NSCLC
SR leukemia = tested on: SR leukemia
UACC-62 melanoma = tested on: UACC-62 melanoma
T-47D breast = tested on: T-47D breast
A498 renal = tested on: A498 renal
OVCAR-8 ovarian = tested on: OVCAR-8 ovarian
IGROV1 ovarian = tested on: IGROV1 ovarian
HT29 colon = tested on: HT29 colon
ACHN renal = tested on: ACHN renal
SK-MEL-5 melanoma = tested on: SK-MEL-5 melanoma
HCT-15 colon = tested on: HCT-15 colon
HS 578T breast = tested on: HS 578T breast
NCI-H23 lung = tested on: NCI-H23 lung
OVCAR-3 ovarian = tested on: OVCAR-3 ovarian
SN12C renal = tested on: SN12C renal
HL-60(TB) leukemia = tested on: HL-60(TB) leukemia
SF-268 CNS = tested on: SF-268 CNS
M14 melanoma = tested on: M14 melanoma
DU-145 prostate = tested on: DU-145 prostate
SW-620 colon = tested on: SW-620 colon
NCI-H226 lung = tested on: NCI-H226 lung
A549 NSCLC = tested on: A549 NSCLC
CCRF-CEM leukemia = tested on: CCRF-CEM leukemia
SNB-75 CNS = tested on: SNB-75 CNS
UO-31 renal = tested on: UO-31 renal
PC-3 prostate = tested on: PC-3 prostate
KM12 colon = tested on: KM12 colon
MALME-3M melanoma = tested on: MALME-3M melanoma
K-562 leukemia = tested on: K-562 leukemia
NCI-H522 lung = tested on: NCI-H522 lung
UACC-257 melanoma = tested on: UACC-257 melanoma
MCF7 breast = tested on: MCF7 breast
BT-549 breast = tested on: BT-549 breast
SF-295 CNS = tested on: SF-295 CNS
U251 CNS = tested on: U251 CNS
LOX IMVI melanoma = tested on: LOX IMVI melanoma
NCI-H460 lung = tested on: NCI-H460 lung
RPMI-8226 leukemia = tested on: RPMI-8226 leukemia
MOLT-4 leukemia = tested on: MOLT-4 leukemia
786-0 renal = tested on: 786-0 renal

Measured: TGI

O=c1c2cccnc2oc2c(Cl)cc(-c3nn[nH]n3)cc12
not listed: NCI-H522 lung | UACC-257 melanoma | MCF7 breast | BT-549 breast | SF-295 CNS | U251 CNS | LOX IMVI melanoma | NCI-H460 lung | RPMI-8226 leukemia | MOLT-4 leukemia | 786-0 renal
> 100 µM: all other assays above

CCCCCc1cc2cc3c(c(O)c2c(=O)[nH]1)C1(CCC3)C(=O)c2c(O)ccc(O)c2C1=O
not listed: SK-OV-3 ovarian | UACC-62 melanoma | T-47D breast
> 100 µM: all other assays above

CC1CN(c2cc3c(cc2F)c(=O)c(C(=O)O)cn3-c2ccc(N3CCN(C)CC3)cn2)CC(C)N1 (configuration not stated)
not listed: HCC-2998 colon | SK-MEL-2 melanoma | ACHN renal | SK-MEL-5 melanoma | NCI-H522 lung | LOX IMVI melanoma
> 100 µM: all other assays above

From PubChem BioAssay (NCI)
